Reference: PubChem BioAssay (NCI)
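All cell lines were grown in 96-well plates and treated with compound for 48 hours. The concentration for 50% growth inhibition is given as GI50. Definition used: TGI = concentration required for complete inhibition of growth.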

Tests used:
Assay in all cases: DTP human tumour cell line panel, 48 h
[1] = test system: SF-295 CNS
[2] = test system: LOX IMVI melanoma
[3] = test system: SK-MEL-5 melanoma
[4] = test system: OVCAR-5 ovarian
[5] = test system: UACC-257 melanoma
[6] = test system: U251 CNS
[7] = test system: NCI-H460 lung
[8] = test system: T-47D breast
[9] = test system: SNB-75 CNS
[10] = test system: MOLT-4 leukemia
[11] = test system: NCI/ADR-RES ovarian
[12] = test system: OVCAR-3 ovarian
[13] = test system: CAKI-1 renal
[14] = test system: SN12C renal
[15] = test system: UACC-62 melanoma
[16] = test system: SF-268 CNS
[17] = test system: K-562 leukemia
[18] = test system: HCC-2998 colon
[19] = test system: SF-539 CNS
[20] = test system: HOP-62 NSCLC
[21] = test system: HL-60(TB) leukemia
[22] = test system: PC-3 prostate
[23] = test system: HS 578T breast
[24] = test system: SK-MEL-2 melanoma
[25] = test system: 786-0 renal
[26] = test system: MDA-MB-435
[27] = test system: HCT-116 colon
[28] = test system: HCT-15 colon
[29] = test system: M14 melanoma
[30] = test system: SK-OV-3 ovarian
[31] = test system: MDA-MB-231 breast
[32] = test system: COLO 205 colon
[33] = test system: HOP-92 NSCLC
[34] = test system: SK-MEL-28 melanoma
[35] = test system: HT29 colon
[36] = test system: TK-10 renal
[37] = test system: CCRF-CEM leukemia
[38] = test system: NCI-H23 lung
[39] = test system: SNB-19 CNS
[40] = test system: SW-620 colon
[41] = test system: UO-31 renal
[42] = test system: ACHN renal
[43] = test system: MALME-3M melanoma
[44] = test system: BT-549 breast
[45] = test system: NCI-H522 lung
[46] = test system: A549 NSCLC
[47] = test system: SR leukemia
[48] = test system: IGROV1 ovarian
[49] = test system: MCF7 breast
[50] = test system: RPMI-8226 leukemia
[51] = test system: EKVX NSCLC
[52] = test system: NCI-H226 lung
[53] = test system: OVCAR-4 ovarian
[54] = test system: KM12 colon
[55] = test system: MDA-N
[56] = test system: A498 renal
[57] = test system: DU-145 prostate
[58] = test system: OVCAR-8 ovarian
[59] = test system: RXF 393 renal

O=C(c1ccco1)N1CCN(C(=O)c2ccco2)C1=S
TGI [1]: 35.8 µM
TGI [2]: 14.9 µM
TGI [3]: 25.1 µM
TGI [4]: 39.8 µM
TGI [5]: 23.3 µM
TGI [6]: 24 µM
TGI [7]: 30 µM
TGI [8]: 27.8 µM
TGI [9]: 26.2 µM
TGI [10]: 24.5 µM
TGI [11]: > 79.7 µM
TGI [12]: 11.6 µM
TGI [13]: 16.7 µM
TGI [14]: 16.4 µM
TGI [15]: 19.1 µM
TGI [16]: 21.8 µM
TGI [17]: 16.5 µM
TGI [18]: 25.7 µM
TGI [19]: 11.2 µM
TGI [20]: 33.1 µM
TGI [21]: 7.16 µM
TGI [22]: 17.5 µM
TGI [23]: > 100 µM
TGI [24]: 31 µM
TGI [25]: 12.8 µM
TGI [26]: 14.1 µM
TGI [27]: 23.2 µM
TGI [28]: 26.3 µM
TGI [29]: 40.5 µM
TGI [30]: 40.8 µM
TGI [31]: 25.4 µM
TGI [32]: 21.2 µM
TGI [33]: 23.6 µM
TGI [34]: 22.8 µM
TGI [35]: 24.2 µM
TGI [36]: 19.8 µM
TGI [37]: 5.7 µM
TGI [38]: 50.3 µM
TGI [39]: > 79.5 µM
TGI [40]: 24.7 µM
TGI [41]: 10.1 µM
TGI [42]: 22.3 µM
TGI [43]: 23 µM
TGI [44]: 33.9 µM
TGI [45]: 19.4 µM
TGI [46]: 35.5 µM
TGI [47]: 12.1 µM
TGI [48]: 27.4 µM
TGI [49]: 11 µM
TGI [50]: 7.31 µM
TGI [51]: 36.7 µM
TGI [52]: 51.5 µM
TGI [53]: 35.2 µM
TGI [54]: 15 µM
TGI [55]: 22.6 µM
GI50 [56]: 16.6 µM
TGI [56]: 35.8 µM
TGI [57]: 7.99 µM
TGI [58]: 62.5 µM
TGI [59]: 12 µM

C/C=C/[C@@H]1O[C@H](CC#C[Si](C)(C)C)[C@@]2(C=O)C(C)=CC[C@H](C(C)C)[C@@H]12
TGI [1]: 67.3 µM
TGI [2]: 18.2 µM
TGI [3]: 35.2 µM
TGI [4]: 40.2 µM
TGI [5]: 32.5 µM
TGI [6]: 34.4 µM
TGI [7]: 39.8 µM
TGI [8]: > 100 µM
TGI [9]: 54.1 µM
TGI [10]: 34.5 µM
TGI [11]: 71 µM
TGI [12]: 42.4 µM
TGI [13]: 5.13 µM
TGI [14]: 34.8 µM
TGI [15]: 32.6 µM
TGI [16]: 52.3 µM
TGI [17]: > 100 µM
TGI [18]: 36.5 µM
TGI [19]: 49.7 µM
TGI [20]: 82.7 µM
TGI [21]: 19.2 µM
TGI [22]: 33.8 µM
TGI [23]: > 100 µM
TGI [24]: 33.5 µM
TGI [25]: 31.3 µM
TGI [26]: 42.5 µM
TGI [27]: 36.9 µM
TGI [28]: 48.5 µM
TGI [29]: 37.2 µM
TGI [30]: > 100 µM
TGI [31]: 36.6 µM
TGI [32]: 66.1 µM
TGI [33]: 41.4 µM
TGI [34]: 47.8 µM
TGI [35]: 46.2 µM
TGI [36]: 31.5 µM
TGI [37]: 6.24 µM
TGI [38]: 49.6 µM
TGI [39]: 62.3 µM
TGI [40]: 59.5 µM
TGI [41]: 3.53 µM
TGI [42]: 39.9 µM
TGI [43]: 37.2 µM
TGI [44]: 49.7 µM
TGI [45]: 4.78 µM
TGI [46]: 64.5 µM
TGI [47]: 56.3 µM
TGI [48]: 10.7 µM
TGI [49]: 63.1 µM
TGI [50]: 52.2 µM
TGI [51]: 41 µM
TGI [52]: 41.7 µM
TGI [53]: 51.7 µM
TGI [54]: 40.8 µM
TGI [55]: 43.9 µM
TGI [56]: 89.6 µM
TGI [57]: 51.8 µM
TGI [58]: > 100 µM
TGI [59]: 36.8 µM
